Earlier results, collected in patent US20050119246A1, “1H-pyrazolyl derivative compounds, for use in diseases associated with the 5-ht2c receptor” (Bayer Pharmaceuticals Corporation, priority 2001, published 2005).

Columns and labels:
5-HT2C receptor = biological target: T1, 5-HT2C receptor (Homo sapiens, UniProt P28335); conditions: background statement; comparator receptors not named
T1 sequence (P28335 33-458): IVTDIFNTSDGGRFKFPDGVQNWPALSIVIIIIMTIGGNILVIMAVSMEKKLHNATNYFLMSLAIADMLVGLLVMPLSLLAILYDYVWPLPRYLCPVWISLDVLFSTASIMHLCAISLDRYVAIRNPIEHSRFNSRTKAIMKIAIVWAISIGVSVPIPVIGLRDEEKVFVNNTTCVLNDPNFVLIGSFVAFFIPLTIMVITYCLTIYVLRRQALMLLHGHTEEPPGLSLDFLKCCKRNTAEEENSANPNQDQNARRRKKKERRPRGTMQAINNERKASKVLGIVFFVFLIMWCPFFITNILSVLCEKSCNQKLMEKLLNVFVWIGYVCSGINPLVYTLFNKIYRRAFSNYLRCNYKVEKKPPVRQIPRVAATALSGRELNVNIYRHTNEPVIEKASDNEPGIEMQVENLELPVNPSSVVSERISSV

5-HT2 receptors = conditions: background statement

pKi for the 5-HT2 receptors (5-HT2 receptors) | selectivity for the 5-HT2 receptors over 5-HT1 receptors (5-HT2 receptors) | SMILES | selectivity of 5-HT2C receptor antagonist (5-HT2C receptor)
 |  | Cc1cc2c(cc1Cl)N(C(=O)Nc1ccc(Oc3cccnc3C)nc1)CC2 [SB-242084] | at least 100 fold
8.9 | 10,000 fold | Cc1nc2sccn2c(=O)c1CCN1CCC(=C(c2ccc(F)cc2)c2ccc(F)cc2)CC1 [ritanserin] | 
